The source of these data is patent US8974768B2, “Azo compounds reducing formation and toxicity of amyloid beta aggregation intermediates” (Max-Delbrueck-Centrum fuer Molekulare Medizin, priority 2010, dated 2015).

Counter-ions that a name gives are not always drawn. Like-named read-outs stand apart in the source and are kept apart here.

Broadly, the IC50 is the concentration that gives 50% inhibition.

One data set has as its target Aβ1-42 peptide (Homo sapiens, UniProt P05067). Put plainly: Thioflavin T (Thio T)-assay of Aβ aggregation. Format: biochemical.
The next data set is described as follows: in vitro. To be noted: human.
Setting [1] is: 30 μM Aβ1-42 peptide, 48 h at 37° C., vs DMSO control, read-out: ThioT: IC50.

Aβ1-42 peptide, sequence (P05067 672-713): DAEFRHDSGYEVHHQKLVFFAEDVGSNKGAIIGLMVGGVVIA

Take `O=C(O)c1cc(N=Nc2ccccc2)ccc1O` [A, 2-hydroxy-5-(phenyldiazenyl)benzoic acid, reference compound]: the IC50 at Aβ1-42 peptide (setting [1]) stood at 57.4 µM.
In the case of `Oc1ccc(N=Nc2ccccc2)c(O)c1` [Compound 15, 4-(phenyldiazenyl)benzene-1,3-diol], the IC50 at Aβ1-42 peptide (setting [1]) was 2.2 µM. This compound displayed an IC50 at 48 h in the data set “in vitro” of roughly 31 µM.
Regarding `Nc1ccc(N=Nc2ccc(Nc3ccccc3)cc2)cc1` [Compound 24, 4-((4-aminophenyl)diazenyl)-N-phenylaniline], the IC50 at Aβ1-42 peptide (setting [1]) worked out at 4.8 µM. Moreover, the IC50 at 48 h in the data set “in vitro” is greater than 30 µM.
`CCOc1ccc(N=Nc2ccc(C)cc2)cc1C` [compound 34, 1-(4-ethoxy-3-methylphenyl)-2-p-tolyldiazene, reference compound]: the IC50 at Aβ1-42 peptide (setting [1]) is 105 µM.
As to `Oc1ccc2ccccc2c1N=Nc1ccccc1` [Compound 25, 1-(phenyldiazenyl)naphthalen-2-ol], the IC50 on Aβ1-42 peptide (setting [1]) turned out to be 43.9 µM.
On the same count and under the same terms, the figure for `O=[N+]([O-])c1ccc(N=Nc2c(O)ccc3ccccc23)cc1` [Compound 31, 1-((4-nitrophenyl)diazenyl)naphthalen-2-ol] is 87.1 µM; for `O=S(=O)(O)c1ccc(N=Nc2ccc(O)cc2O)cc1` [Compound 27, sodium 4-((2,4-dihydroxyphenyl)diazenyl)benzenesulfonate] it is 61.5 µM.
Same read-out and setting: the figure for `O=S(=O)(O)c1ccc(O)c(N=Nc2ccc(O)cc2O)c1` [Compound 29, sodium 3-((2,4-dihydroxyphenyl)diazenyl)-4-hydroxybenzenesulfonate] is 19.8 µM; for `Cc1cc(N=Nc2ccccc2C)ccc1N` [Compound 26, 2-methyl-4-(o-tolyldiazenyl)aniline] it is 31.8 µM.
At Aβ1-42 peptide, `c1ccc(N=Nc2ccccc2)cc1` [compound 33, 1,2-diphenyldiazene, reference compound] yielded an IC50 of 1090 µM.
For `O=S(=O)(O)c1cc(O)c2c(N=Nc3ccc(O)cc3O)cc(S(=O)(=O)O)cc2c1` [Compound 28, 4-((2,4-dihydroxyphenyl)diazenyl)-5-hydroxynaphthalene-2,7-disulfonic acid], the IC50 on Aβ1-42 peptide (setting [1]) is 19.2 µM.
On to `Cc1cccc(N=Nc2cc(C=O)c(O)cc2O)c1` [Compound 16, 2,4-dihydroxy-5-(m-tolyldiazenyl)benzaldehyde], for which, on Aβ1-42 peptide (setting [1]), the 50% inhibitory concentration (IC50) worked out at 3.3 µM. In the data set “in vitro”, this compound came in with an IC50 at 48 h greater than 30 µM.
For the compound `CN(C)CCCN1c2ccccc2Sc2ccc(Cl)cc21` [Chlorpromazine, Chlorpromazine hydrochloride, reference compound], it took 14.1 µM to reach half-maximal inhibition in “in vitro” (IC50 at 48 h).
In the case of `O=S(=O)(O)c1cccc(N=Nc2ccc(Nc3ccccc3)cc2)c1` [Compound 11], the IC50 on Aβ1-42 peptide (setting [1]) was 9.5 µM. This compound also came in with an IC50 at 48 h in the data set “in vitro” greater than 100 µM.
On to `O=[N+]([O-])c1ccc(N=NNc2ccc(N=Nc3ccccc3)cc2)cc1` [Compound 23, 1-(4-nitrophenyl)-3-(4-(phenyldiazenyl)phenyl)triaz-1-ene], for which the concentration for half-maximal inhibition (IC50) on Aβ1-42 peptide (setting [1]) amounted to 1.1 µM. Also, the IC50 at 48 h in “in vitro” is greater than 30 µM.
The like results for `Nc1ccc(N=Nc2ccc([N+](=O)[O-])cc2)cc1` [Compound 3, 4-((4-nitrophenyl)diazenyl)aniline] were, in that order, 3.3 µM and greater than 100 µM.
The like results for `Oc1ccc(N=Nc2ncn[nH]2)c(O)c1` [Compound 17, 4-((1H-1,2,4-triazol-5-yl)diazenyl)benzene-1,3-diol] were, in that order, 8 µM and greater than 100 µM.
Regarding `O=C(O)c1ccccc1N=Nc1ccc(O)cc1` [B, 2-((4-hydroxyphenyl)diazenyl)Benzoic acid, reference compound], at Aβ1-42 peptide (setting [1]), the IC50 was found to be 736 µM.
Same read-out and setting: as for `O=C(O)c1cc(N=Nc2ccc(-c3ccc(N=Nc4ccc(O)c(C(=O)O)c4)cc3)cc2)ccc1O` [C, (5-5′-biphenyl-4,4′-diylbis(diazene-2,1-diyl)bis(2-hydroxybenzoic acid)), reference compound], the figure is 0.5 µM; as for `COc1ccc(N=Nc2nccs2)c(O)c1` [Compound 30, 5-methoxy-2-(thiazol-2-yldiazenyl)phenol], 27.4 µM.
